Laboratory results: US6551615B1, “Dexibuprofen-containing soft gelatin capsules and process for preparing the same” (M/s. Strides Arcolab Limited, priority 2001, dated 2003)

Assays:
[1] = Compatibility of dexibuprofen with glycerin plasticizer; type: physicochemical; settings: in some instances
Excerpt: In general, gelatin capsule formulations for soft gelatin capsules comprise raw gelatin and one or more plasticizers added to adjust the hardness of the capsule. Typical plasticizers include glycerin, sorbitol and Anidrisorb 85/70. A preferred plasticizer is Anidrisorb 85/70, an aqueous solution of D-sorbitol and sorbitans. […] One preferred gelatin formulation for the soft gelatin capsules used in accordance with preferred embodiments includes gelatin in the range of about 40% to 48% and a plasticizer ranging in amount from about 20% to 35%. Another preferred plasticizer is sorbitol BP, a non-crystallizing sorbitol solution. When either a 70%, non-crystallizing sorbitol solution or Anidrisorb 85/70 are used alone, the amount of plasticizer used preferaby ranges from about 25% to 35%. Capsule formulations can also include other suitable additives, for example coloring agents, which impart specific characteristics such as the look and feel of the capsule. FD&C dyes and D & C dyes are examples of pharmaceutically acceptable coloring agents that may be used in preferred embodiments.

[2] = cited from earlier work

In the case of `CC(C)Cc1ccc([C@H](C)C(=O)O)cc1` [Dexibuprofen, (S)-(+)-2-(4-isobutylphenyl)propionic acid], the “Reaction with glycerin (plasticizer of the capsule shell)” value [1] is given as “forming unwanted glycerol esters of dexibuprofen”, the Solubility in acetone ([2]; acetone) is given as “freely soluble” and the “Solubility in aqueous solutions of alkali hydroxides and carbonates” value ([2]; aqueous solutions of alkali hydroxides and carbonates) is given as “soluble”. For the same molecule, the Solubility in methanol ([2]; methanol) was “freely soluble”, the “Solubility in methylene chloride” value ([2]; methylene chloride) was “freely soluble” and the “Solubility in most organic solvents” value ([2]; most organic solvents) was “readily soluble”. For the same molecule, the Solubility in water ([2]; water) was “practically insoluble”.
